Results on 15 compounds are retold here after patent publication US11639353B2, “Cyclobutanes- and azetidine-containing mono and spirocyclic compounds as αV integrin inhibitors” (BRISTOL-MYERS SQUIBB COMPANY, priority 2016, dated 2023).

As a reminder, the IC50 is the concentration at which inhibition is half-maximal. High values mean a need for much substance, low ones inhibition by little substance.

The target of the test is T1, human αVβ6 (Homo sapiens, UniProt P06756+P18564).
T1 construct: purchased R & D systems 3817-AV
T1 sequence (P06756 31-992 limits assumed): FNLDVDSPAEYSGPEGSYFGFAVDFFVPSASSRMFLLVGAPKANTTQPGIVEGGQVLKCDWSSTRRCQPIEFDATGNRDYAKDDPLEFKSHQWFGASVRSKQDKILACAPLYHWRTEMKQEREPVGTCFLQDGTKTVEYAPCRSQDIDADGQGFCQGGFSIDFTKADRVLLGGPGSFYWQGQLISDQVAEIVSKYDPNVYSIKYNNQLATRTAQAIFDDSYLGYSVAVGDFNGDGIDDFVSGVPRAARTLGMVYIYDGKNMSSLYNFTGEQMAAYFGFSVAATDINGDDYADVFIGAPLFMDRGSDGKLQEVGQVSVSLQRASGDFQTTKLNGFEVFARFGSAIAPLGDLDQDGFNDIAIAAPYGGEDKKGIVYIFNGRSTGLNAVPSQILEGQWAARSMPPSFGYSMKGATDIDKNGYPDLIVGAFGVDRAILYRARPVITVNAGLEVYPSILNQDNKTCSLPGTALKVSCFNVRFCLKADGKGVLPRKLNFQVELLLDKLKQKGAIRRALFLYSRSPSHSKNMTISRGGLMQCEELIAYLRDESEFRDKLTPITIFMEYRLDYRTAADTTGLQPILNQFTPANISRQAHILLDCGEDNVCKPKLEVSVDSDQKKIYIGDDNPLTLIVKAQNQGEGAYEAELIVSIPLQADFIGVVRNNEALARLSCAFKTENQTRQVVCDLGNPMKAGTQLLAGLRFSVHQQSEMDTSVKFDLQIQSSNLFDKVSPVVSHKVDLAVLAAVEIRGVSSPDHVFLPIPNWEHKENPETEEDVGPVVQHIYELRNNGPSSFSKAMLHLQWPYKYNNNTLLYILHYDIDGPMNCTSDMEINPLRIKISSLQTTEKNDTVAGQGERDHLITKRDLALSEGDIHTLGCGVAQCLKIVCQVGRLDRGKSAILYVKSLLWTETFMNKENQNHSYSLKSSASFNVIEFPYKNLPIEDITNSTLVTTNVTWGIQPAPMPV
T1 sequence (P18564 22-707 limits assumed): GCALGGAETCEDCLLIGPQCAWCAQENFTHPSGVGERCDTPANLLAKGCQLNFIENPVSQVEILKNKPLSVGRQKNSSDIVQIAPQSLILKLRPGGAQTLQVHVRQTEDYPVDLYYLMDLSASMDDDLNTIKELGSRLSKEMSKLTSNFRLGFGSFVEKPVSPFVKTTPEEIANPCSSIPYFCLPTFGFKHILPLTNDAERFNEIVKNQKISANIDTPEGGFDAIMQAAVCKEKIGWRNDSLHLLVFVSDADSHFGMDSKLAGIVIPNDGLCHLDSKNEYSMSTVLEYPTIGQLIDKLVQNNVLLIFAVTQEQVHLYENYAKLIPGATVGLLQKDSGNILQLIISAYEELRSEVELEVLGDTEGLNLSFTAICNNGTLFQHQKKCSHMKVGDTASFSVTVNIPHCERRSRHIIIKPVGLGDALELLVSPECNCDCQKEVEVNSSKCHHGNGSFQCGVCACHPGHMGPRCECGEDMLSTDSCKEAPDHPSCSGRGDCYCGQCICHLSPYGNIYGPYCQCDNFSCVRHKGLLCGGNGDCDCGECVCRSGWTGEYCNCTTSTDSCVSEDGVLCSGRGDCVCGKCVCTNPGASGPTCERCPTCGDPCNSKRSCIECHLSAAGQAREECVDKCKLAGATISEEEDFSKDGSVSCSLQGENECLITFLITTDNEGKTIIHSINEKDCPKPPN
The test is described as follows: human αVβ6 HTRF binding assay. To be noted: alternatively SPA-based assay. The method, then:
All binding assays used the HTRF (homogeneous time resolved fluorescence) technology from Cisbio International, therefore all assays are described as HTRF binding assays. The assay results for the Examples are listed above together with the characterization data. The HTRF binding assays are established for the following integrins: human αVβ6, human αVβ1, human αVβ3, human αVβ5, and human αVβ8. All assays used the following assay buffer: 20 mM Tris, pH 7.4, 1 mM MgCl2, 1 mM MnCl2, 0.01% Tween 20, and 0.01% BSA. Alternatively, a SPA-based assay was used for evaluation of receptor binding.
The following describes the components and a representative procedure for the human αVβ6 HTRF binding assay: Recombinant human αVβ6 Integrin (R & D systems, 3817-AV) was biotinylated. Biotinylated human αVβ6 Integrin was added to assay vessel at a final concentration of 1.25 nM. FITC-conjugated fibronectin (Cytoskeleton, FNR02) was then added at the final concentration of 5 nM. The mixture was centrifuged at 600 rpm for three minutes using Thermo Fisher Heraeus Multifuge X3 centrifuge and then incubated at RT for an hour. Streptavidin Terbium (Cisbio international 610STLB) was then added at the final concentration of 0.625 nM. The resulting mixture was centrifuged at 600 rpm for three minutes using Thermo Fisher Heraeus Multifuge X3 centrifuge and then incubated at room temperature overnight in dark before reading HTRF signals.
The SPA-based assay was carried out according to the protocol and procedures similar to the ones described in the following reference with appropriate modifications to agents and ligands which are readily understood by one skilled in the art: Pachter J A, Zhang R, Mayer-Ezell R., “Scintillation proximity assay to measure binding of soluble fibronectin to antibody-captured αVβ1 integrin” Anal Biochem. 1995 Sep. 1; 230(1):101-7.
As for `Cc1cc(C)c(S(=O)(=O)N[C@@H](CNC(=O)C2CN(CCCc3ccc4c(n3)NCCC4)C2)C(=O)O)c(C)c1` [Example 14, (S)-3-(1-(3-(5,6,7,8-Tetrahydro-1,8-naphthyridin-2-yl)propyl)azetidine-3-carboxamido)-2-(2,4,6-trimethylphenylsulfonamido)propanoic acid], the half-maximal inhibitory concentration (IC50) came to 0.7 nM. For the compound `COC(=O)N(C1CC2(C1)CN(CCc1ccc3c(n1)NCCC3)C2)[C@@H](CC(=O)O)c1cc(Cl)cc(Cl)c1` [Example 19, (S)-3-(3,5-Dichlorophenyl)-3-((methoxycarbonyl)(2-(2-(5,6,7,8-tetrahydro-1,8-naphthyridin-2-yl)ethyl)-2-azaspiro[3.3]heptan-6-yl)amino)propanoic acid], the IC50 turned out to be 84.5 nM. Turning to `CN(C1CC2(C1)CN(CCc1ccc3c(n1)NCCC3)C2)[C@@H](CC(=O)O)c1cc(Cl)cc(Cl)c1` [Example 20, (S)-3-(3,5-Dichlorophenyl)-3-(methyl(2-(2-(5,6,7,8-tetrahydro-1,8-naphthyridin-2-yl)ethyl)-2-azaspiro[3.3]heptan-6-yl)amino)propanoic acid], the 50% inhibitory concentration (IC50) came to 16 nM.

On to `CC(=O)N(C1CN(CCCc2ccc3c(n2)NCCC3)C1)[C@@H](CC(=O)O)c1cc(Cl)cc(Cl)c1` [Example 21, (S)-3-(3,5-Dichlorophenyl)-3-(N-(1-(3-(5,6,7,8-tetrahydro-1,8-naphthyridin-2-yl)propyl)azetidin-3-yl)acetamido)propanoic acid], for which the IC50 came out at 9.8 nM. This IC50 lies about 1.6-fold lower than the previous one. For the compound `COc1ccc(C(CC(=O)O)C2(F)CN(CCCCc3ccc4c(n3)NCCC4)C2)cc1F` (stereo not drawn) [Example 22, 3-(3-Fluoro-1-(4-(5,6,7,8-tetrahydro-1,8-naphthyridin-2-yl)butyl)azetidin-3-yl)-3-(3-fluoro-4-methoxyphenyl)propanoic acid], the half-maximal inhibitory concentration (IC50) is 3.8 nM. In turn, `COc1ccc(CN(CCC(=O)O)C2CN(CCCc3ccc4c(n3)NCCC4)C2)cn1` [Example 23, 3-(((6-Methoxypyridin-3-yl)methyl)(1-(3-(5,6,7,8-tetrahydro-1,8-naphthyridin-2-yl)propyl)azetidin-3-yl)amino)propanoic acid] yielded a half-inhibitory concentration (IC50) of 2.8 nM. This IC50 and that of the compound before are within 1.5-fold of each other. The same measure for `COC(Cc1ccc2c(n1)NCCC2)C1CN(C(=O)C[C@H](NC(=O)OCc2ccccc2)C(=O)O)C1` (stereo partly drawn) [Example 24, (2S)-2-(((Benzyloxy)carbonyl)amino)-4-(3-(1-methoxy-2-(5,6,7,8-tetrahydro-1,8-naphthyridin-2-yl)ethyl)azetidin-1-yl)-4-oxobutanoic acid]: 490 nM; for `COc1ccc([C@H](CC(=O)O)NC(=O)C2CC(C(Cc3ccc4c(n3)NCCC4)NS(=O)(=O)c3ccc(C)cc3)C2)cc1F` (stereo partly drawn) [Example 25, (3S)-3-(3-Fluoro-4-methoxyphenyl)-3-(3-(1-(4-methylphenylsulfonamido)-2-(5,6,7,8-tetrahydro-1,8-naphthyridin-2-yl)ethyl)cyclobutanecarboxamido)propanoic acid]: 3 nM.

`Cc1cc(C)c(S(=O)(=O)N[C@@H](CNC(=O)C2CC3(CC(NC(=O)CCc4ccc5c(n4)NCCC5)C3)C2)C(=O)O)c(C)c1` (stereo partly drawn) [Example 28] came in with a concentration for half-maximal inhibition (IC50) of 380 nM. The value for `O=C(O)C[C@H](NC(=O)C1CC2(CC(NC(=O)CCc3ccc4c(n3)NCCC4)C2)C1)c1cc(Cl)cc(Cl)c1` (stereo partly drawn) [Example 29] was 2000 nM. Compound `O=C(O)C[C@H](NC(=O)C1CC2(CC(NC(=O)CCc3ccc4c(n3)NCCC4)C2)C1)c1cc(Cl)cc(Cl)c1` (stereo partly drawn) [Example 30] registered a concentration for half-maximal inhibition (IC50) of 3300 nM. This IC50 is about 1.6-fold higher than that of the compound before.

The compound `CCOC(=O)C[C@H](NC(=O)C1CC2(C1)CN(CCc1ccc3c(n1)NCCC3)C2)c1ccc(OC)c(F)c1` [Example 31] came in with an IC50 of 230 nM. Consider `COc1ccc([C@H](CC(=O)O)NC(=O)C2CC3(C2)CN(CCCc2ccc4c(n2)NCCC4)C3)cn1` [Example 32], for which the IC50 is 130 nM. Compared with the last compound, the IC50 is about 1.8-fold lower.

Compound `O=C(O)C[C@H](NC(=O)C1CC2(C1)CN(CCc1ccc3c(n1)NCCC3)C2)c1cc(Cl)cc(Cl)c1` [Example 33] displayed an IC50 of 2.7 nM. This IC50 lies about 48-fold lower than the previous one. In turn, `CC(C)(C)c1cc(Br)cc([C@H](CC(=O)O)NC(=O)C2CC3(C2)CN(CCc2ccc4c(n2)NCCC4)C3)c1` [Example 34] showed an IC50 of 2 nM.
